Our source for the IC50 values is patent US10800782B2, “Inhibitors of cellular metabolic processes” (Agios Pharmaceuticals, Inc., priority 2016, dated 2020).

SMILES strings stand for the structures. pIC50: −log10 of the molar value. A value given as a limit tells only on which side of the number the result lay.

For this assay, the target named is T1, MAT2A (Homo sapiens, UniProt P31153).
T1 construct: His6; made in house; host or cells: SF9 insect cells
T1 sequence (P31153 whole entry): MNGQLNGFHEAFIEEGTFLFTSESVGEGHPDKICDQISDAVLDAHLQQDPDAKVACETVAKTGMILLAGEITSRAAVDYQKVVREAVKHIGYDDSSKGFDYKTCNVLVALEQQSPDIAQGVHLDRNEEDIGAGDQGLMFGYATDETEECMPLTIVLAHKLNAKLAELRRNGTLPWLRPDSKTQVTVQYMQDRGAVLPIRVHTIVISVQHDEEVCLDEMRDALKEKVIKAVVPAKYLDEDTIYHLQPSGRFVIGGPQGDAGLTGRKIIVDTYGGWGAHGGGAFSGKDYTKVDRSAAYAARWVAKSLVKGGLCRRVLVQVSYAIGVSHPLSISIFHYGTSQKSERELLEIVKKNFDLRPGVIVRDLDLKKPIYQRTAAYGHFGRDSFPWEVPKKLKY
The experiment in a line: MAT2A biochemical assay (colorimetric inorganic phosphate detection, PiColorLock). The conditions noted are these: recombinant His6-tagged MAT2A 1 μg/ml; 60 minutes preincubation at 25° C.; L-Met 80 μM, ATP 100 μM; 60 minutes reaction; read at 623 nm; read-out: MAT2A Inhibition Score. The essentials: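 Colorimetric malachite green readout of phosphate released when MAT2A turns over L-Met and ATP, after 60 min at room temperature. Enzyme: SF9-expressed His6-tagged MAT2A at 1 μg/ml. Buffer: Tris pH 8.0, 50 mM KCl, 15 mM MgCl2, 300 uM EDTA, 0.005% BSA. Compounds tested as ten-point three-fold dilutions.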
`Cc1[nH]c2c(-c3ccccc3)c(-c3cc[nH]n3)nn2c(=O)c1-c1ccc2ncccc2c1` [Compound 280, 5-methyl-3-phenyl-2-(1H-pyrazol-3-yl)-6-(quinolin-6-yl)pyrazolo[1,5-a]pyrimidin-7(4H)-one]: the pIC50 is greater than 7.00. The figure for `Cn1c(CO)c(-c2ccc3ncccc3c2)c(=O)n2nc(-c3ccccc3)c(-c3ccccc3)c12` [Compound 281, 5-(hydroxymethyl)-4-methyl-2,3-diphenyl-6-(quinolin-6-yl)pyrazolo[1,5-a]pyrimidin-7(4H)-one] is greater than 7.00. The figure for `Cc1[nH]c2c(C3=CC(O)CCC3)c(-c3ccccc3)nn2c(=O)c1-c1ccc2ncccc2c1` (stereo not drawn) [Compound 282] is greater than 7.00. The figure for `COc1ccc(-c2c(NC(=O)CN)[nH]c3c(-c4ccccc4)c(-c4ccccc4)nn3c2=O)cc1` [Compound 283, 2-amino-N-(6-(4-methoxyphenyl)-7-oxo-2,3-diphenyl-4,7-dihydropyrazolo[1,5-a]pyrimidin-5-yl)acetamide] is greater than 7.00. With `COc1ccc(-c2c(Nc3nnc(C)s3)[nH]c3c(-c4ccccc4)c(-c4ccccc4)nn3c2=O)cc1` [Compound 285, 6-(4-methoxyphenyl)-5-((5-methyl-1,3,4-thiadiazol-2-yl)amino)-2,3-diphenylpyrazolo[1,5-a]pyrimidin-7(4H)-one], the pIC50 is greater than 7.00.

With `COc1ccc(-c2c(NCCO)[nH]c3c(-c4ccccc4)c(-c4ccccc4)nn3c2=O)cc1` [Compound 286, 5-((2-hydroxyethyl)amino)-6-(4-methoxyphenyl)-2,3-diphenylpyrazolo[1,5-a]pyrimidin-7(4H)-one], the pIC50 was greater than 7.00. On to `CCOC(=O)n1ccc(Nc2[nH]c3c(-c4ccccc4)c(-c4ccccc4)nn3c(=O)c2-c2ccc(OC)cc2)n1` [Compound 287, ethyl 3-((6-(4-methoxyphenyl)-7-oxo-2,3-diphenyl-4,7-dihydropyrazolo[1,5-a]pyrimidin-5-yl)amino)-1H-pyrazole-1-carboxylate], for which the pIC50 was greater than 7.00. For `COc1ccc(-c2c(O)[nH]c3c(-c4ccccc4)c(-c4ccccc4)nn3c2=O)cc1` [Compound 290, 5-hydroxy-6-(4-methoxyphenyl)-2,3-diphenylpyrazolo[1,5-a]pyrimidin-7(4H)-one] the value was greater than 7.00; for `COCn1c(-c2ccccc2)c(C2=CCCCC2)c2nc(C)c(-c3ccc(OC)cc3)c(=O)n21` [Compound 291, 3-cyclohexenyl-1-(methoxymethyl)-6-(4-methoxyphenyl)-5-methyl-2-phenylpyrazolo[1,5-a]pyrimidin-7(1H)-one], greater than 7.00. For the compound `Cc1[nH]c2c(-c3ccccc3)c(-c3ccccc3)nn2c(=O)c1-c1ccc(O)c(OCCN(C)C)c1` [Compound 292, 6-(3-(2-(dimethylamino)ethoxy)-4-hydroxyphenyl)-5-methyl-2,3-diphenylpyrazolo[1,5-a]pyrimidin-7(4H)-one], the pIC50 was greater than 7.00.

Regarding `Cc1[nH]c2c(C3=CCCCC3)c(-c3ccccc3)nn2c(=O)c1-c1ccc(OC(=O)[C@@H](N)C(C)C)cc1` [Compound 294, (S)-4-(3-cyclohexenyl-5-methyl-7-oxo-2-phenyl-4,7-dihydropyrazolo[1,5-a]pyrimidin-6-yl)phenyl 2-amino-3-methylbutanoate], the pIC50 was greater than 7.00. The figure for `Cc1[nH]c2c(C3=CCCCC3)c(-c3ccccc3)nn2c(=O)c1-c1ccc(OP(=O)(O)O)cc1` [Compound 295, 4-(3-(cyclohex-1-en-1-yl)-5-methyl-7-oxo-2-phenyl-4,7-dihydropyrazolo[1,5-a]pyrimidin-6-yl)phenyl dihydrogen phosphate] is greater than 7.00.

Regarding `Cc1[nH]c2c(C3=CCCCC3)c(-c3ccccc3)nn2c(=O)c1-c1ccc(OCOP(=O)(O)O)cc1` [Compound 296, (4-(3-cyclohexenyl-5-methyl-7-oxo-2-phenyl-4,7-dihydropyrazolo[1,5-a]pyrimidin-6-yl)phenoxy)methyl dihydrogen phosphate], the pIC50 was greater than 7.00. The figure for `COc1ccc(-c2c(Nc3ccncc3)[nH]c3c(C4=CCCCC4)c(-c4ccccc4)nn3c2=O)cc1` [Compound 297, 3-(cyclohex-1-en-1-yl)-6-(4-methoxyphenyl)-2-phenyl-5-(pyridin-4-ylamino)pyrazolo[1,5-a]pyrimidin-7(4H)-one] is greater than 7.00. The figure for `Cc1[nH]c2c(N3CCCCC3)c(-c3ccccc3)nn2c(=O)c1C1CC1` [Compound 298, 6-cyclopropyl-5-methyl-2-phenyl-3-(piperidin-1-yl)pyrazolo[1,5-a]pyrimidin-7(4H)-one] is 6.00 to 7.00; for `Cc1[nH]c2c(N3CCCCC3)c(-c3ccccc3)nn2c(=O)c1C1CCCC1` [Compound 300, 6-cyclopentyl-5-methyl-2-phenyl-3-(piperidin-1-yl)pyrazolo[1,5-a]pyrimidin-7(4H)-one] it is 6.00 to 7.00; for `Cc1[nH]c2c(N3CCCCC3)c(-c3ccccc3)nn2c(=O)c1-c1cccc(N)c1` [Compound 301, 6-(3-aminophenyl)-5-methyl-2-phenyl-3-(piperidin-1-yl)pyrazolo[1,5-a]pyrimidin-7(4H)-one] it is 6.00 to 7.00. The figure for `Cc1[nH]c2c(N3CCCCC3)c(-c3ccccc3)nn2c(=O)c1N1CCOCC1` [Compound 302, 5-methyl-6-morpholino-2-phenyl-3-(piperidin-1-yl)pyrazolo[1,5-a]pyrimidin-7(4H)-one] is 6.00 to 7.00; for `Cc1[nH]c2c(N3CCCCC3)c(-c3ccccc3)nn2c(=O)c1-c1cc[nH]c(=O)c1` [Compound 303, 5-methyl-6-(2-oxo-1,2-dihydropyridin-4-yl)-2-phenyl-3-(piperidin-1-yl)pyrazolo[1,5-a]pyrimidin-7(4H)-one] it is 5.00 to 6.00.

As to `Cc1[nH]c2c(N3CCCCC3)c(-c3ccccc3)nn2c(=O)c1-c1ccncc1` [Compound 304, 5-methyl-2-phenyl-3-(piperidin-1-yl)-6-(pyridin-4-yl)pyrazolo[1,5-a]pyrimidin-7(4H)-one], the pIC50 is 6.00 to 7.00.

As for `Cc1[nH]c2c(N3CCCCC3)c(-c3ccccc3)nn2c(=O)c1-c1ccc(C(N)=O)cc1` [Compound 305, 4-(5-methyl-7-oxo-2-phenyl-3-(piperidin-1-yl)-4,7-dihydropyrazolo[1,5-a]pyrimidin-6-yl)benzamide], the pIC50 is 6.00 to 7.00. For the compound `Cc1[nH]c2c(N3CCCCC3)c(-c3ccccc3)nn2c(=O)c1-c1ccc(S(C)(=O)=O)cc1` [Compound 306, 5-methyl-6-(4-(methylsulfonyl)phenyl)-2-phenyl-3-(piperidin-1-yl)pyrazolo[1,5-a]pyrimidin-7(4H)-one], the pIC50 was 5.00 to 6.00.

In the case of `Cc1[nH]c2c(N3CCCCC3)c(-c3ccccc3)nn2c(=O)c1-c1ccc(N)cc1` [Compound 307, 6-(4-aminophenyl)-5-methyl-2-phenyl-3-(piperidin-1-yl)pyrazolo[1,5-a]pyrimidin-7(4H)-one], the pIC50 was 6.00 to 7.00. The figure for `CC(=O)Nc1ccc(-c2c(C)[nH]c3c(N4CCCCC4)c(-c4ccccc4)nn3c2=O)cc1` [Compound 308, N-(4-(5-methyl-7-oxo-2-phenyl-3-(piperidin-1-yl)-4,7-dihydropyrazolo[1,5-a]pyrimidin-6-yl)phenyl)acetamide] is 5.00 to 6.00; for `Cc1[nH]c2c(N3CCCCC3)c(-c3ccccc3)nn2c(=O)c1-c1ccc(O)nc1` [Compound 309, 6-(6-hydroxypyridin-3-yl)-5-methyl-2-phenyl-3-(piperidin-1-yl)pyrazolo[1,5-a]pyrimidin-7(4H)-one] it is 6.00 to 7.00. The figure for `Cc1[nH]c2c(N3CCCCC3)c(-c3ccccc3)nn2c(=O)c1-c1cscn1` [Compound 310, 5-methyl-2-phenyl-3-(piperidin-1-yl)-6-(thiazol-4-yl)pyrazolo[1,5-a]pyrimidin-7(4H)-one] is 5.00 to 6.00; for `Cc1[nH]c2c(N3CCCCC3)c(-c3ccccc3)nn2c(=O)c1N1CCC(O)CC1` [Compound 311, 6-(4-hydroxypiperidin-1-yl)-5-methyl-2-phenyl-3-(piperidin-1-yl)pyrazolo[1,5-a]pyrimidin-7(4H)-one] it is 6.00 to 7.00; for `CCc1[nH]c2c(-c3ccccc3)c(-c3ccccc3)nn2c(=O)c1-c1ccc(OC)cc1` [Compound 312, 5-ethyl-6-(4-methoxyphenyl)-2,3-diphenylpyrazolo[1,5-a]pyrimidin-7(4H)-one] it is 6.00 to 7.00. For `COc1ccc(-c2c(C#N)[nH]c3c(-c4ccccc4)c(-c4ccccc4)nn3c2=O)cc1` [Compound 314, 6-(4-methoxyphenyl)-7-oxo-2,3-diphenyl-4,7-dihydropyrazolo[1,5-a]pyrimidine-5-carbonitrile] the value was 6.00 to 7.00; for `COc1ccc(-c2c(C(N)=O)[nH]c3c(-c4ccccc4)c(-c4ccccc4)nn3c2=O)cc1` [Compound 315, 6-(4-methoxyphenyl)-7-oxo-2,3-diphenyl-4,7-dihydropyrazolo[1,5-a]pyrimidine-5-carboxamide], 6.00 to 7.00. For the compound `Cc1[nH]c2c(N3CCC(F)(F)C3)c(-c3ccccc3)nn2c(=O)c1-c1ccc2ncccc2c1` [Compound 316, 3-(3,3-difluoropyrrolidin-1-yl)-5-methyl-2-phenyl-6-(quinolin-6-yl)pyrazolo[1,5-a]pyrimidin-7(4H)-one], the pIC50 is 6.00 to 7.00. The figure for `Cc1[nH]c2c(N3CCC(F)(F)C3)c(-c3ccccc3)nn2c(=O)c1-c1ccc2nccn2c1` [Compound 317, 3-(3,3-difluoropyrrolidin-1-yl)-6-(imidazo[1,2-a]pyridin-6-yl)-5-methyl-2-phenylpyrazolo[1,5-a]pyrimidin-7(4H)-one] is 6.00 to 7.00; for `Cc1c(-c2ccc3ncccc3c2)c(=O)n2nc(-c3ccccc3)c(-c3ccccc3)c2n1C` [Compound 318, 4,5-dimethyl-2,3-diphenyl-6-(quinolin-6-yl)pyrazolo[1,5-a]pyrimidin-7(4H)-one] it is 6.00 to 7.00.
